These are literature values, as cited in US20070213354A1, “Compositions and Methods for the Treatment of Multiple Sclerosis” (AmpliMed Corporation, priority 2006, published 2007).

The IC50 is the point on the concentration scale where inhibition reaches its midpoint.

SMILES strings stand for the structures.

The test system of one data set is L1210 sensitive. To be noted: murine leukemia L1210 sensitive to standard cytotoxic agents; MTT, continuous exposure; cited from earlier work.
In the next data set the test system is L1210 resistant. The conditions noted are these: murine leukemia L1210 resistant, P-glycoprotein producing; MTT, continuous exposure; cited from earlier work.
The next data set concerns neonatal rat myocytes. To be noted: 1 hour drug concentration that reduces ATP/protein ratio to 50% of untreated control myocytes; read-out: IC50 Cardiotox; cited from earlier work.

In the case of `CCc1ccc2c3c(c4ccccc4cc13)C(=O)N(CCN(C)C)C2=O` [*6-C2H5], the results for the IC50 with L1210 sensitive, in the data set on L1210 resistant and in the data set with neonatal rat myocytes were 183 nM, 235 nM and 7830 nM, respectively.

Turning to `O=C1c2cccc3cc4ccccc4c(c23)C(=O)N1c1cccnc1` [2-(3-pyridyl)], the IC50 in the data set on L1210 sensitive was 544 nM; in the data set on L1210 resistant it was 554 nM; with neonatal rat myocytes it was > 25000 nM.

`CN(C)CCN1C(=O)c2c(NC(=O)C(C)(C)C)ccc3cc4ccccc4c(c23)C1=O` [*4-NHCOC(CH3)3]: the IC50 with L1210 sensitive is 862 nM; in the data set with L1210 resistant, 172 nM; with neonatal rat myocytes, > 24600 nM.

As for `CN(C)CCOc1ccc2c3c(c4ccccc4cc13)C(=O)N(CCN(C)C)C2=O` [*6-O(CH2)2N(CH3)2], the half-maximal inhibitory concentration (IC50) with L1210 sensitive was 0.2 nM; with L1210 resistant it was 1 nM; in the data set on neonatal rat myocytes, 5440 nM.

On to `CC(=O)Nc1cccc2cc3cccc4c3c(c12)C(=O)N(CCN(C)C)C4=O` [*11-NHCOCH3], for which the IC50 with L1210 sensitive is 243 nM; in the data set with L1210 resistant it was 2430 nM; in the data set on neonatal rat myocytes, > 22500 nM.

As for `CCCOc1c2ccccc2c2c3c(cccc13)C(=O)N(CCN(C)C)C2=O` [*6-OC3H7], the values for the IC50 in the data set with L1210 sensitive, in the data set with L1210 resistant and in the data set on neonatal rat myocytes were 17 nM, 49 nM and 7760 nM, respectively.

As to `COc1cccc2c1C(=O)c1c(O)c3c(c(O)c1C2=O)C[C@@](O)(C(=O)CO)C[C@@H]3O[C@H]1C[C@H](N)[C@H](O)[C@H](C)O1` [Doxorubicin, reference compound], the figures for the IC50 in the data set on L1210 sensitive, with L1210 resistant and with neonatal rat myocytes were 35 nM, 3880 nM and 10200 nM, respectively.

`O=C1c2cccc3cc4ccccc4c(c23)C(=O)N1CCN1CCCC1` [2-(CH2)2N(CH2)4]: the IC50 is 15 nM in the data set with L1210 sensitive, 12 nM with L1210 resistant and 920 nM with neonatal rat myocytes.

In the case of `CN(C)CCN1C(=O)c2cc(NC(=O)C(C)(C)C)cc3cc4ccccc4c(c23)C1=O` [*5-NHCOC(CH3)3], the values for the IC50 in the data set with L1210 sensitive, in the data set on L1210 resistant and in the data set on neonatal rat myocytes were 44 nM, 15 nM and 662 nM, respectively.

As to `CN(C)CCN1C(=O)c2c(N)ccc3cc4ccccc4c(c23)C1=O` [*4-NH2], the IC50 in the data set on L1210 sensitive was 5 nM; in the data set with L1210 resistant it was 8 nM; with neonatal rat myocytes, 434 nM.

Turning to `CNCCN1C(=O)c2cccc3cc4ccccc4c(c23)C1=O` [2-(CH2)2NHCH3], the IC50 was 10 nM in the data set on L1210 sensitive, 21 nM in the data set on L1210 resistant and 7060 nM in the data set with neonatal rat myocytes.

With `CN(C)CCN1C(=O)c2cccc3cc4ccc([N+](=O)[O-])cc4c(c23)C1=O` [*10-NO2], the IC50 is 25 nM in the data set on L1210 sensitive, 25 nM with L1210 resistant and 801 nM in the data set on neonatal rat myocytes.

As to `CC(=O)Nc1ccc2cc3ccccc3c3c2c1C(=O)N(CCN(C)C)C3=O` [*4-NHCOCH3], the IC50 was 608 nM with L1210 sensitive, 560 nM with L1210 resistant and > 24300 nM in the data set with neonatal rat myocytes.

Regarding `COc1ccc2cc3cccc4c3c(c2c1)C(=O)N(CCN(C)C)C4=O` [*10-OCH3], the values for the IC50 in the data set on L1210 sensitive, with L1210 resistant and with neonatal rat myocytes were 21 nM, 52 nM and 9100 nM, respectively.

For `CN(C)CCN1C(=O)c2cccc3cc4cc(N)ccc4c(c23)C1=O` [*9-NH2], the IC50 with L1210 sensitive was 3 nM; in the data set with L1210 resistant, 16 nM; with neonatal rat myocytes, 813 nM.

With `CN(C)CCN1C(=O)c2cccc3c(Cl)c4ccccc4c(c23)C1=O` [*7-Cl], the figures for the IC50 in the data set on L1210 sensitive, in the data set with L1210 resistant and in the data set on neonatal rat myocytes were 154 nM, 206 nM and 10800 nM, respectively.

`O=C1c2cccc3cc4ccccc4c(c23)C(=O)N1CCN1CCNCC1` [2-(CH2)2—N-piperazinyl]: the IC50 in the data set on L1210 sensitive was 174 nM; with L1210 resistant, 463 nM; in the data set on neonatal rat myocytes it was 6710 nM.

As to `CN(C)CCN1C(=O)c2cccc3cc4cccc([N+](=O)[O-])c4c(c23)C1=O` [*11-NO2], the IC50 with L1210 sensitive was 23 nM; with L1210 resistant, 50 nM; in the data set with neonatal rat myocytes, 8650 nM.

In the case of `CN(C)CCN1C(=O)c2cccc3cc4c(N)cccc4c(c23)C1=O` [*8-NH2], the IC50 in the data set on L1210 sensitive was 6780 nM; in the data set with L1210 resistant, 6780 nM; in the data set with neonatal rat myocytes, > 81300 nM.

With `Cc1ccc2c3c(c4ccccc4cc13)C(=O)N(CCN(C)C)C2=O` [*6-CH3], the IC50 in the data set on L1210 sensitive was 7 nM; in the data set with L1210 resistant, 27 nM; with neonatal rat myocytes, 989 nM.

As for `CN(C)CCN1C(=O)c2cccc3cc4cc(O)ccc4c(c23)C1=O` [*9-OH], the IC50 was 5 nM in the data set with L1210 sensitive, 7 nM with L1210 resistant and 404 nM in the data set on neonatal rat myocytes.

As for `CN(C)CCN1C(=O)c2cccc3cc4cc(Cl)ccc4c(c23)C1=O` [*9-Cl], the IC50 with L1210 sensitive is 8 nM; with L1210 resistant, 8 nM; in the data set with neonatal rat myocytes, 1540 nM.

On to `CN(C)CCNc1c2ccccc2c2c3c(cccc13)C(=O)N(CCN(C)C)C2=O` [*7-NH(CH2)2N(CH3)2], for which the IC50 in the data set with L1210 sensitive is 524 nM; with L1210 resistant it was 524 nM; in the data set on neonatal rat myocytes, 291000 nM.

`O=C1c2cccc3cc4ccccc4c(c23)C(=O)N1CCN1CCCCC1` [2-(CH2)2N(CH2)5]: the values for the IC50 with L1210 sensitive, in the data set with L1210 resistant and with neonatal rat myocytes were 51 nM, 51 nM and 10400 nM, respectively.

On to `COc1ccc2c3c4c(cccc4cc2c1)C(=O)N(CCN(C)C)C3=O` [*9-OCH3], for which the IC50 in the data set with L1210 sensitive was 54 nM; in the data set on L1210 resistant, 54 nM; with neonatal rat myocytes it was < 2600 nM.

As for `CCN1CCCC(N2C(=O)c3cccc4cc5ccccc5c(c34)C2=O)C1` (stereo not drawn) [2-(1-ethyl-3-piperidinyl)], the IC50 is 635 nM in the data set with L1210 sensitive, 609 nM in the data set on L1210 resistant and 8760 nM with neonatal rat myocytes.

Regarding `O=C1c2cccc3cc4ccccc4c(c23)C(=O)N1Cc1cccnc1` [2-CH2-3-pyridyl], the results for the IC50 in the data set with L1210 sensitive, in the data set on L1210 resistant and in the data set on neonatal rat myocytes were 1870 nM, 2670 nM and > 25000 nM, respectively.

For `CNCCN1C(=O)c2ccc(Cl)c3cc4ccccc4c(c23)C1=O` [2-(CH2)2NHCH3; 6-Cl], the IC50 in the data set on L1210 sensitive is 53 nM; in the data set with L1210 resistant, 53 nM; with neonatal rat myocytes, 7600 nM.

Take `CN(C)CCN1C(=O)c2cccc3cc4cccc(Cl)c4c(c23)C1=O` [*11-Cl]: the IC50 was 1780 nM in the data set on L1210 sensitive, 617 nM in the data set with L1210 resistant and 8230 nM with neonatal rat myocytes.

For the compound `CN(C)CCN1C(=O)c2ccc(N(C)C)c3cc4ccccc4c(c23)C1=O` [*6-N(CH3)2], the IC50 is 23 nM in the data set with L1210 sensitive, 96 nM in the data set on L1210 resistant and 46600 nM in the data set on neonatal rat myocytes.

Turning to `COc1cccc2c3c4c(cccc4cc12)C(=O)N(CCN(C)C)C3=O` [*8-OCH3], the values for the IC50 with L1210 sensitive, in the data set on L1210 resistant and in the data set with neonatal rat myocytes were 13 nM, 18 nM and 806 nM, respectively.

For `CN(C)CCN1C(=O)c2ccc(NCCO)c3cc4ccccc4c(c23)C1=O` [*6-NH(CH2)2OH], the IC50 in the data set on L1210 sensitive is 6 nM; in the data set with L1210 resistant, 48 nM; in the data set with neonatal rat myocytes, 1210 nM.

Regarding `CN(C)CCN1C(=O)c2cccc3cc4c(O)cccc4c(c23)C1=O` [*8-OH], the values for the IC50 in the data set on L1210 sensitive, in the data set on L1210 resistant and in the data set on neonatal rat myocytes were 108 nM, 67 nM and 2950 nM, respectively.

Turning to `CN(C)CCN1C(=O)c2cccc3cc4ccc(N)cc4c(c23)C1=O` [*10-NH2], the IC50 in the data set with L1210 sensitive was 3 nM; in the data set on L1210 resistant it was 3 nM; in the data set with neonatal rat myocytes it was 943 nM.

As for `CSc1ccc2c3c(c4ccccc4cc13)C(=O)N(CCN(C)C)C2=O` [*6-SCH3], the values for the IC50 in the data set with L1210 sensitive, in the data set on L1210 resistant and in the data set with neonatal rat myocytes were 0.4 nM, 0.5 nM and 3000 nM, respectively.

Turning to `CN(C)CCCN1C(=O)c2cccc3cc4ccccc4c(c23)C1=O` [2-(CH2)3N(CH3)2], the IC50 is 54 nM in the data set on L1210 sensitive, 82 nM in the data set with L1210 resistant and 11400 nM in the data set on neonatal rat myocytes.

For the compound `CN(C)CCN1C(=O)c2cccc3cc4c([N+](=O)[O-])cccc4c(c23)C1=O` [*8-NO2], the IC50 with L1210 sensitive was 50 nM; in the data set with L1210 resistant, 20 nM; in the data set with neonatal rat myocytes, 650 nM.

Consider `CN(C)CCN1C(=O)c2cccc3c(O)c4ccccc4c(c23)C1=O` [*7-OH], for which the figures for the IC50 in the data set on L1210 sensitive, with L1210 resistant and in the data set with neonatal rat myocytes were 472 nM, 212 nM and > 24100 nM, respectively.

On to `CC(=O)Nc1ccc2c3c4c(cccc4cc2c1)C(=O)N(CCN(C)C)C3=O` [*9-NHCOCH3], for which the IC50 with L1210 sensitive is 114 nM; with L1210 resistant it was 170 nM; in the data set with neonatal rat myocytes, 487 nM.

For `CN(C)CCN1C(=O)c2ccc(I)c3cc4ccccc4c(c23)C1=O` [*6-I], the IC50 in the data set with L1210 sensitive is 416 nM; with L1210 resistant it was 416 nM; with neonatal rat myocytes, 43700 nM.

Take `CN(C)CCN1C(=O)c2cccc3cc4ccccc4c(c23)C1=O` [2-(CH2)2N(CH3)2]: the IC50 in the data set on L1210 sensitive is 7 nM; in the data set with L1210 resistant it was 7 nM; in the data set with neonatal rat myocytes it was 1980 nM.

Regarding `CN(C)CCN1C(=O)c2ccc(O)c3cc4ccccc4c(c23)C1=O` [*6-OH], the IC50 is 217 nM in the data set on L1210 sensitive, 145 nM in the data set with L1210 resistant and > 24100 nM in the data set on neonatal rat myocytes.

For `Cc1ccc2cc3ccccc3c3c2c1C(=O)N(CCN(C)C)C3=O` [*4-CH3], the IC50 in the data set with L1210 sensitive is 54 nM; with L1210 resistant, 68 nM; with neonatal rat myocytes, 1360 nM.

In the case of `CCOc1c2ccccc2c2c3c(cccc13)C(=O)N(CCN(C)C)C2=O` [*7-OC2H5], the IC50 is 63 nM in the data set with L1210 sensitive, 50 nM in the data set on L1210 resistant and 5300 nM with neonatal rat myocytes.

Consider `CN(C)CCN1C(=O)c2cccc3cc4ccc(O)cc4c(c23)C1=O` [*10-OH], for which the IC50 in the data set with L1210 sensitive is 189 nM; in the data set on L1210 resistant it was 540 nM; with neonatal rat myocytes, > 27000 nM.

With `CC(=O)Nc1cccc2c3c4c(cccc4cc12)C(=O)N(CCN(C)C)C3=O` [*8-NHCOCH3], the IC50 with L1210 sensitive was 485 nM; in the data set on L1210 resistant, 510 nM; with neonatal rat myocytes it was 12100 nM.

As for `CN(C)CCN1C(=O)c2cccc3cc4cccc(N)c4c(c23)C1=O` [*11-NH2], the IC50 in the data set on L1210 sensitive was 678 nM; in the data set with L1210 resistant, 678 nM; with neonatal rat myocytes, 27100 nM.

Take `O=C1c2cccc3cc4ccccc4c(c23)C(=O)N1CCc1ccccn1` [2-(CH2)2-2-pyridyl]: the IC50 is 6440 nM in the data set on L1210 sensitive, 15500 nM in the data set with L1210 resistant and > 25000 nM in the data set on neonatal rat myocytes.

For `CN(C)CCN1C(=O)c2cccc3cc4ccc(Cl)cc4c(c23)C1=O` [*10-Cl], the figures for the IC50 in the data set with L1210 sensitive, with L1210 resistant and in the data set with neonatal rat myocytes were 5 nM, 8 nM and 771 nM, respectively.
